Laboratory results: patent publication US7317007B2, “Benzothiazole derivatives with activity as adenosine receptor ligands” (Hoffmann-La Roche Inc., priority 2000, dated 2008)

Target: T1, human adenosine A2A receptor (Homo sapiens, UniProt P29274)
T1 construct: expressed in transfected cells; host or cells: CHO cells, Semliki Forest virus expression system; washed membrane pellet used
Experiment: [3H]-SCH-58261 binding assay at the human adenosine A2A receptor
Details: not given
Experimental: Human Adenosine A2A Receptor
The human adenosine A2A receptor was recombinantly expressed in chinese hamster ovary (CHO) cells using the semliki forest virus expression system. Cells were harvested, washed twice by centrifugation, homogenised and again washed by centrifugation. The final washed membrane pellet was suspended in a Tris (50 mM) buffer containing 120 mM NaCl, 5 mM KCl, 2 mM CaCl2 and 10 mM MgCl2 (pH 7.4) (buffer A). The [^3H]-SCH-58261 (Dionisotti et al., 1997, Br J Pharmacol 121, 353; 1 nM) binding assay was carried out in 96-well plates in the presence of 2.5 μg of membrane protein, 0.5 mg of Ysi-poly-1-lysine SPA beads and 0.1 U adenosine deaminase in a final volume of 200 μl of buffer A. Non-specific binding was defined using xanthine amine congener (XAC; 2 μM). Compounds were tested at 10 concentrations from 10 μM-0.3 nM. All assays were conducted in duplicate and repeated at least two times. Assay plates were incubated for 1 hour at room temperature before centrifugation and then bound ligand determined using a Packard Topcount scintillation counter. IC50 values were calculated using a non-linear curve fitting program and Ki values calculated using the Cheng-Prussoff equation.

T1 sequence (P29274 whole entry): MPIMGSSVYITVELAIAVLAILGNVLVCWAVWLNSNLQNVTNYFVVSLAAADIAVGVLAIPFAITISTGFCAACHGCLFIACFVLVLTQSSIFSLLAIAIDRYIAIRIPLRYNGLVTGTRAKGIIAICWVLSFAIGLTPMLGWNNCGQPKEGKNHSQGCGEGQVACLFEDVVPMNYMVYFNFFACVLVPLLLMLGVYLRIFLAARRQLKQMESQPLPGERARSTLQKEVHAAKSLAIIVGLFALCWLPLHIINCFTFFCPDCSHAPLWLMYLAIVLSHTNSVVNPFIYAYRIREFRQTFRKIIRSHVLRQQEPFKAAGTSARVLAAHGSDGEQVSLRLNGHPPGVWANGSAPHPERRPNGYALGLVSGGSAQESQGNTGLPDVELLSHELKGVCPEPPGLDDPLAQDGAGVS

Compound	Ki [nM]
COc1ccc(N2CCOCC2)c2sc(NC(=O)N3CCC(=O)CC3)nc12 [Example 342, 4-Oxo-piperidine-1-carboxylic acid (4-methoxy-7-morpholin-4-yl-benzothiazol-2-yl)-amide]	3.16

Same assay, conditions: read-out: pKi value (converted)

Compound	Ki [nM]
COCCOCc1ccc(C(=O)Nc2nc3c(OC)ccc(N4CCOCC4)c3s2)cc1 [Example 314, 4-(2-Methoxy-ethoxymethyl)-N-(4-methoxy-7-morpholin-4-yl-benzothiazol-2-yl)-benzamide]	3.16
COCc1ccc(C(=O)Nc2nc3c(OC)ccc(N4CCOCC4)c3s2)cc1 [Example 315, 4-Methoxymethyl-N-(4-methoxy-7-morpholin-4-yl-benzothiazol-2-yl)-benzamide]	2.51
COc1ccc(N2CCSCC2)c2sc(NC(=O)c3ccccc3)nc12 [Example 317, N-(4-Methoxy-7-thiomorpholin-4-yl-benzothiazol-2-yl)-benzamide]	2.51
COc1ccc(N2CCOCC2)c2sc(NC(=O)C3CCN(C(=O)OC(C)(C)C)CC3)nc12 [Example 326, 4-(4-Methoxy-7-morpholin-4-yl-benzothiazol-2-ylcarbamoyl)-piperidine-1-carboxylic acid tert-butyl ester]	3.16
COc1ccc(N2CCOCC2)c2sc(NC(=O)C3CCN(C(C)=O)CC3)nc12 [Example 327, 1-Acetyl-piperidine-4-carboxylic acid (4-methoxy-7-morpholin-4-yl-benzothiazol-2-yl)-amide]	3.16
COC(=O)N(C)Cc1ccc(C(=O)Nc2nc3c(OC)ccc(N4CCOCC4)c3s2)cc1 [Example 369, [4-(4-Methoxy-7-morpholin-4-yl-benzothiazol-2-ylcarbamoyl)-benzyl]-methyl-carbamic acid methyl ester]	0.631

Test system: not given
Experiment: not given
Details: not given

Compound	melting point
CCOC(=O)C(=O)Nc1nc2c(OC)ccc(-c3ccccc3)c2s1 [Example 47, N-(4-Methoxy-7-phenyl-benzothiazol-2-yl)-oxalamic acid ethyl ester]	138 to 142 °C
COc1ccc(-c2csc(N3CCOCC3)n2)c2sc(NC(=O)c3ccc(F)cc3)nc12 [Example 216, 4-Fluoro-N-[4-methoxy-7-(2-morpholin-4-yl-thiazol-4-yl)-benzothiazol-2-yl]-benzamide]	225 to 227 °C
COc1ccc(-c2csc(N)n2)c2sc(NC(=O)c3ccc(F)cc3)nc12 [Example 217, N-[7-(2-Amino-thiazol-4-yl)-4-methoxy-benzothiazol-2-yl]-4-fluoro-benzamide]	262 to 264 °C
COc1ccc(-c2csc(N(C)C)n2)c2sc(NC(=O)c3ccc(F)cc3)nc12 [Example 219, N-[7-(2-Dimethylamino-thiazol-4-yl)-4-methoxy-benzothiazol-2-yl]-4-fluoro-benzamide]	218 to 220 °C
COc1ccc(-c2cccs2)c2sc(NC(=O)c3ccc(F)cc3)nc12 [Example 220, 4-Fluoro-N-(4-methoxy-7-thiophen-2-yl-benzothiazol-2-yl)-benzamide]	242 to 250 °C
COc1ccc(-c2csc(-c3ccccn3)n2)c2sc(NC(=O)c3ccc(F)cc3)nc12 [Example 222, 4-Fluoro-N-[4-methoxy-7-(2-pyridin-2-yl-thiazol-4-yl)-benzothiazol-2-yl]-benzamide]	150 °C (dec.)
COc1ccc(-c2csc(C)n2)c2sc(NC(=O)c3ccc(F)cc3)nc12 [Example 224, 4-Fluoro-N-[4-methoxy-7-(2-methyl-thiazol-4-yl)-benzothiazol-2-yl]-benzamide]	217 to 219 °C
COc1ccc(-c2ccc(C)s2)c2sc(NC(=O)c3ccc(F)cc3)nc12 [Example 225, 4-Fluoro-N-[4-methoxy-7-(5-methyl-thiophen-2-yl)-benzothiazol-2-yl]-benzamide]	192 to 196 °C (dec.)
COc1ccc(-c2csc(-c3ccc(C)nc3)n2)c2sc(NC(=O)c3ccc(CCl)cc3)nc12 [Example 228, 4-Chloromethyl-N-{4-methoxy-7-[2-(6-methyl-pyridin-3-yl)-thiazol-4-yl]-benzothiazol-2-yl}-benzamide]	230 to 250 °C
